Assay results: patent US10377744B2, “Potent soluble epdxide hydrolase inhibitors” (Eicosis, LLC, priority 2014, dated 2019)
≈ marks a conversion by molar mass, not a printed value. Where two headings read alike, the source gives them in different places.

Assays:
[1] = Experimental logP by HPLC method; assay type: physicochemical; settings: for chromatographic logP: read-out: Exp. logP
human sEH [2] = target: T1, human sEH (Homo sapiens (Human), UniProt P34913); assay: koff measurement, enzymatic t1/2 (residence time); settings: time for half of the drug to dissociate from recombinant affinity purified human sEH
human sEH [3] = target: T1, human sEH; assay: FRET-displacement assay (Ki); assay type: binding; settings: for Ki: affinity purified recombinant human sEH, FRET-displacement
[4] = Solubility in Phosphate Buffer at pH 7.4; assay type: physicochemical; settings: for solubility compared to sEH inhibitors with hydrophobic alkyl group at R7: in words
[5] = Solubility in Acetate Buffer at pH 3; assay type: physicochemical; settings: for solubility: aqueous buffer, read-out: Sol (ug/mL) at pH3
[6] = pH titration of solubility; assay type: physicochemical; settings: FIG. 9
PTZ induced seizure = assay: Pentylenetetrazol (PTZ) induced seizure model; assay type: in vivo, mice
Experimental: To investigate the central nervous system penetration efficacy of sEH inhibitors a standard acute test involving the administration of pro-convulsant pentylenetetrazol (PTZ) was employed. In the subcutaneous pentylenetetrazol (PTZ) test 80 mg/kg of PTZ is administered by subcutaneous route, time to onset of first clonic seizure (clonus), time to tonic hind limb extension and lethality (tonus) are monitored for a duration of 30 min. Inhibitors of sEH were completely dissolved using PEG400 as a vehicle to give clear solutions. Inhibitors or vehicle were administered by intraperitoneal route 1 h prior to pro-convulsant at a single discriminating dose based on earlier data. This dose of PTZ produces 100% lethality within 30 min upon administration.
PTZ is a chemical which induces seizures. This assay is considered highly translatable from mice to humans.

[7] = HPLC method calibrated with eLogP of 4 selected inhibitors determined by shake-flask method

T1 sequence (P34913 whole entry): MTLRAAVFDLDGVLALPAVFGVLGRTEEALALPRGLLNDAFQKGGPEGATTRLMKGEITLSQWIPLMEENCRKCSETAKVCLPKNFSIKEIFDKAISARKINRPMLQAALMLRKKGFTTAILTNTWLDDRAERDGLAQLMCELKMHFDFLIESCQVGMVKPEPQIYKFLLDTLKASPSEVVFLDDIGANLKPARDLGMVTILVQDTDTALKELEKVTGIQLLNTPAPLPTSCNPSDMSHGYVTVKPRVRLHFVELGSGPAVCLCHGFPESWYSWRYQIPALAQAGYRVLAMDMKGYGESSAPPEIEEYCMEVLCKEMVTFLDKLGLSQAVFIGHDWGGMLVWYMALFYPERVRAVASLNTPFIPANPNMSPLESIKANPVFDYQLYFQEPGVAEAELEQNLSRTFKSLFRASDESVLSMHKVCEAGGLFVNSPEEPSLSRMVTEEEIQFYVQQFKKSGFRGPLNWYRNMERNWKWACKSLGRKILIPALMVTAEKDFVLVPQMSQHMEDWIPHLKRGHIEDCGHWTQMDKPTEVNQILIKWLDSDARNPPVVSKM

Question: Which chromatographic logP [1] does the source give for `O=C(Nc1ccc(OC(F)(F)F)cc1)NC1CCN(C(=O)C2CCOCC2)CC1` [Compound 1, 1-(1-(tetrahydro-2H-pyran-4-carbonyl)piperidin-4-yl)-3-(4-(trifluoromethoxy)phenyl)urea] here?
Answer: 3.26

Question: Which chromatographic logP [1, 7] does the source give for `CC[C@H](C)C(=O)N1CCC(NC(=O)Nc2ccc(OC(F)(F)F)c(Cl)c2)CC1` [Compound 44, (S)-1-(3-chloro-4-(trifluoromethoxy)phenyl)-3-(1-(2-methylbutanoyl)piperidin-4-yl)urea] here?
Answer: 7.7

Question: And the “t1/2 (min) human sEH” value (human sEH [2])?
Answer: 10 min

Question: Which chromatographic logP [1, 7] does the source give for `O=C(Nc1ccc(C(F)(F)F)cc1)NC1CCN(C(=O)c2cc[nH]c2)CC1` [Compound 16, 1-(1-(1H-pyrrole-3-carbonyl)piperidin-4-yl)-3-(4-(trifluoromethyl)phenyl)urea] here?
Answer: 3.26

Question: For `CC(C)C(=O)N1CCC(NC(=O)Nc2ccc(C(F)(F)F)cc2)CC1` [Compound 2389, reference compound], which “Exp. logP” value [1] is on record?
Answer: 3.37

Question: With `CC[C@H](C)C(=O)N1CCC(NC(=O)Nc2ccc(OC(F)(F)F)c(OC(F)(F)F)c2)CC1` [Compound 47] as the compound, how does the chromatographic logP [1, 7] read?
Answer: 10.6

Question: With `CCOC(=O)N1CCC(NC(=O)Nc2ccc(C(F)(F)F)c(F)c2)CC1` [Compound 41, ethyl 4-(3-(3-fluoro-4-(trifluoromethyl)phenyl)ureido)piperidine-1-carboxylate] as the compound, how does the chromatographic logP [1, 7] read?
Answer: 5.46

Question: Which chromatographic logP [1, 7] does the source give for `O=C(Nc1ccc(C(F)(F)F)c(F)c1)NC1CCN(C(=O)C2CC2)CC1` [Compound 32, 1-(1-(cyclopropanecarbonyl)piperidin-4-yl)-3-(3-fluoro-4-(trifluoromethyl)phenyl)urea] here?
Answer: 3.94

Question: For “2-(1-(cyclopropanecarbonyl)piperidin-4-yl)-N-(3-fluoro-4-(trifluoromethoxy)phenyl)acetamide [Compound 48]”, which “Exp. logP” value [1] is on record?
Answer: 5.11

Question: For `O=C(Nc1ccc(OC(F)(F)F)c(F)c1)NC1CCN(C(=O)N2CCC(NC(=O)Nc3ccc(OC(F)(F)F)c(F)c3)CC2)CC1` [Compound 39], which Ki (human sEH [3]) is on record?
Answer: 10.1 ± 1.8 nM

Question: With `CCOC(=O)N1CCC(NC(=O)Nc2ccc(OC(F)(F)F)c(F)c2)CC1` [Compound 40, ethyl 4-(3-(3-fluoro-4-(trifluoromethoxy)phenyl)ureido)piperidine-1-carboxylate] as the compound, how does the chromatographic logP [1, 7] read?
Answer: 5.94

Question: With `Cc1occc1C(=O)N1CCC(NC(=O)Nc2ccc(OC(F)(F)F)cc2)CC1` [Compound 6, 1-(1-(2-methylfuran-3-carbonyl)piperidin-4-yl)-3-(4-(trifluoromethoxy)phenyl)urea] as the compound, how does the chromatographic logP [1] read?
Answer: 4.3

Question: Which “Exp. logP” value [1] does the source give for `CC(C)C(=O)N1CCC(NC(=O)Nc2ccc(OC(F)(F)F)cc2)CC1` [Compound 2422, reference compound] here?
Answer: 3.56

Question: For `CCC(=O)N1CCC(NC(=O)Nc2ccc(C(F)(F)F)c(F)c2)CC1` [Compound 31, 1-(3-fluoro-4-(trifluoromethyl)phenyl)-3-(1-propionylpiperidin-4-yl)urea], which chromatographic logP [1, 7] is on record?
Answer: 3.76

Question: Which chromatographic logP [1, 7] does the source give for `CC[C@H](C)C(=O)N1CCC(NC(=O)Nc2ccc(OC(F)(F)F)c(C(F)(F)F)c2)CC1` [Compound 46, (S)-1-(1-(2-methylbutanoyl)piperidin-4-yl)-3-(4-(trifluoromethoxy)-3-(trifluoromethyl)phenyl)urea] here?
Answer: 9.02

Question: Which chromatographic logP [1, 7] does the source give for `CC[C@H](C)C(=O)N1CCC(NC(=O)Nc2ccc(OC(F)(F)F)c(Br)c2)CC1` [Compound 45] here?
Answer: 8.07

Question: With `O=C(Nc1ccc(C(F)(F)F)c(F)c1)NC1CCN(C(=O)C2(C(F)(F)F)CC2)CC1` [Compound 36, 1-(3-fluoro-4-(trifluoromethyl)phenyl)-3-(1-(1-(trifluoromethyl)cycloproropane-1-carbonyl)piperidin-4-yl)urea] as the compound, how does the “Potency Enhancement” value (human sEH [3]; Ki of original inhibitor / Ki of meta-F substituted inhibitor) read?
Answer: 1

Question: And the chromatographic logP [1, 7]?
Answer: 5.52

Question: With `O=C(Nc1ccc(OC(F)(F)F)c(F)c1)NC1CCN(C(=O)C2CCCOC2)CC1` (stereo not shown) [Compound 27] as the compound, how does the “solubility compared to sEH inhibitors with hydrophobic alkyl group at R7” value [4] read?
Answer: remarkably enhance the solubility

Question: What about the solubility ([5]; Acetate Buffer at pH 3) of the same compound?
Answer: 522 µg/mL (≈ 1200 µM)

Question: And the “solubility at pH 3 compared to APAU” value ([5]; pH 3, in words)?
Answer: much better than the most soluble 1,3-disubstituted urea sEH inhibitors

Question: With `O=C(Nc1ccc(C(F)(F)F)c(F)c1)NC1CCN(C(=O)C2CCOCC2)CC1` [Compound 37, 1-(3-fluoro-4-(trifluoromethyl)phenyl)-3-(1-(tetrahydro-2H-pyran-4-carbonyl)piperidin-4-yl)urea] as the compound, how does the chromatographic logP [1, 7] read?
Answer: 3.52

Question: With `O=C(Nc1ccc(C(F)(F)F)cc1)NC1CCN(C(=O)C2=COCC2)CC1` [Compound 12, 1-(1-(4,5-dihydrofuran-3-carbonyl)piperidin-4-yl)-3-(4-(trifluoromethyl)phenyl)urea] as the compound, how does the chromatographic logP [1, 7] read?
Answer: 3.37

Question: For `O=C(Nc1ccc(OC(F)(F)F)c(F)c1)Nc1ccc(OC(F)(F)F)c(F)c1` [Compound 38], which Ki (human sEH [3]) is on record?
Answer: 1.95 ± 0.3 nM

Question: For `CC[C@H](C)C(=O)N1CCC(NC(=O)Nc2ccc(OC(F)(F)F)c(F)c2)CC1` [Compound 26, (S)-1-(3-fluoro-4-(trifluoromethoxy)phenyl)-3-(1-(2-methylbutanoyl)piperidin-4-yl)urea], which chromatographic logP [1, 7] is on record?
Answer: 4.16

Question: For `O=C(Nc1ccc(OC(F)(F)F)c(F)c1)NC1CCN(C(=O)C2(C(F)(F)F)CC2)CC1` [Compound 30], which chromatographic logP [1, 7] is on record?
Answer: 5.94

Question: Which chromatographic logP [1, 7] does the source give for `O=C(Nc1ccc(OC(F)(F)F)c(F)c1)NC1CCN(C(=O)C2CCOCC2)CC1` [Compound 29, 1-(3-fluoro-4-(trifluoromethoxy)phenyl)-3-(1-(tetrahydro-2H-pyran-4-carbonyl)piperidin-4-yl)urea] here?
Answer: 3.73

Question: What about the “solubility compared to sEH inhibitors with hydrophobic alkyl group at R7” value [4] of the same compound?
Answer: remarkably enhance the solubility

Question: And the solubility ([5]; Acetate Buffer at pH 3)?
Answer: 206 µg/mL (≈ 475 µM)

Question: And the “solubility in pH titration” value [6]?
Answer: increases dramatically when the pH is below 4

Question: What about the “onset of the tonic phase of seizure” value (PTZ induced seizure; 0.3 mpk, wild type Swiss mice, subcutaneous PTZ, p<0.05) of the same compound?
Answer: delayed onset of the tonic phase of seizure

Question: What about the “protection from convulsions and associated lethality” value (PTZ induced seizure; mice, PTZ 80 mg/kg subcutaneous, inhibitor 1 h prior) of the same compound?
Answer: protect mice from convulsions and associated lethality

Question: With `O=C(Nc1ccc(C(F)(F)F)c(F)c1)NC1CCN(C(=O)[C@@H]2CCOC2)CC1` [Compound 33, (R)-1-(3-fluoro-4-(trifluoromethyl)phenyl)-3-(1-(tetrahydrofuran-3-carbonyl)piperidin-4-yl)urea] as the compound, how does the chromatographic logP [1, 7] read?
Answer: 3.41

Question: For `O=C(Nc1ccc(OC(F)(F)F)c(F)c1)NC1CCN(C(=O)C2CC2)CC1` [Compound 24, 1-(1-(cyclopropanecarbonyl)piperidin-4-yl)-3-(3-fluoro-4-(trifluoromethoxy)phenyl)urea], which chromatographic logP [1] is on record?
Answer: 4.19

Question: Which chromatographic logP [1, 7] does the source give for `O=C(Nc1ccc(C(F)(F)F)c(F)c1)NC1CCN(C(=O)C2CCCOC2)CC1` (stereo not shown) [Compound 35, 1-(3-fluoro-4-(trifluoromethyl)phenyl)-3-(1-(tetrahydro-2H-pyran-3-carbonyl)piperidin-4-yl)urea] here?
Answer: 3.84

Question: What does the source list for `CC(=O)N1CCC(NC(=O)NC23CC4CC(CC(C4)C2)C3)CC1` [APAU, reference compound]?
Answer: chromatographic logP [1]: 1.5; solubility ([4]; aqueous buffer, Phosphate Buffer at pH 7.4): 277 µg/mL (≈ 867 µM)

Question: For `O=C(Nc1ccc(OC(F)(F)F)c(F)c1)NC1CCN(C(=O)N2CCOCC2)CC1` [Compound 43, 1-(3-fluoro-4-(trifluoromethoxy)phenyl)-3-(1-(morpholine-4-carbonyl)piperidin-4-yl)urea], which chromatographic logP [1, 7] is on record?
Answer: 3.93

Question: With “1-(3-fluoro-4-(trifluoromethyl)phenyl)-3-(1-isobutyrylpiperidin-4-yl)urea [Compound 20]” as the compound, how does the “Sol (ug/mL) at pH3” value ([5]; Acetate Buffer at pH 3) read?
Answer: 6 ug/mL

Question: With `O=C(Nc1ccc(C(F)(F)F)cc1)NC1CCN(C(=O)C2CCCOC2)CC1` (stereo not shown) [Compound 15, 1-(1-(tetrahydro-2H-pyran-3-carbonyl)piperidin-4-yl)-3-(4-(trifluoromethyl)phenyl)urea] as the compound, how does the chromatographic logP [1, 7] read?
Answer: 3.41
